Data taken from PubChem BioAssay AID1963974 (Molecular Pharmacology Branch, DTP, NCI, 2024).
pIC50: −log10 of the molar value. Several values for one entry are separate records, joined by “and”; a condition that tells them apart may be missing. Equal values may be shown once.

Test system: 648629-189-R-J1-PDC spheroids with HUVEC/MSC, viability
Assay: Anticancer human tumor 648629-189-R-J1-PDC patient-derived bladder carcinoma cell line growth inhibition [PI3K]
Details: for viability, T/C: stronger effect = lower value
Summary of the method: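 Tumor cells were combined with HUVEC and MSCs into spheroids, then dosed with PI3K-inhibitor combinations over half-log ranges capped near clinical Cmax or 10 microM.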

[1] = curve of first compound, second compound 0.00316 µM
[2] = curve of first compound, second compound 0.01 µM
[3] = curve of first compound, second compound 0.0316 µM
[4] = curve of first compound, second compound 0.1 µM
[5] = curve of first compound, second compound 0.316 µM
[6] = curve of first compound, second compound 1 µM
[7] = second compound 0.00316 µM, first compound 0.00316 µM
[8] = second compound 0.00316 µM, first compound 0.01 µM
[9] = second compound 0.00316 µM, first compound 0.0316 µM
[10] = second compound 0.00316 µM, first compound 0.1 µM
[11] = second compound 0.01 µM, first compound 0.00316 µM
[12] = second compound 0.01 µM, first compound 0.01 µM
[13] = second compound 0.01 µM, first compound 0.0316 µM
[14] = second compound 0.01 µM, first compound 0.1 µM
[15] = second compound 0.0316 µM, first compound 0.00316 µM
[16] = second compound 0.0316 µM, first compound 0.01 µM
[17] = second compound 0.0316 µM, first compound 0.0316 µM
[18] = second compound 0.0316 µM, first compound 0.1 µM
[19] = second compound 0.1 µM, first compound 0.00316 µM
[20] = second compound 0.1 µM, first compound 0.01 µM
[21] = second compound 0.1 µM, first compound 0.0316 µM
[22] = second compound 0.1 µM, first compound 0.1 µM
[23] = second compound 0.316 µM, first compound 0.00316 µM
[24] = second compound 0.316 µM, first compound 0.01 µM
[25] = second compound 0.316 µM, first compound 0.0316 µM
[26] = second compound 0.316 µM, first compound 0.1 µM
[27] = second compound 1 µM, first compound 0.00316 µM
[28] = second compound 1 µM, first compound 0.01 µM
[29] = second compound 1 µM, first compound 0.0316 µM
[30] = second compound 1 µM, first compound 0.1 µM
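Further: spheroids exposed to agents for seven days before reading.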
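Wherever viability, T/C is given: percent of vehicle control luminescence where 100% = DMSO treated spheroids.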

CCN1CCN(Cc2ccc(Nc3ncc(F)c(-c4cc(F)c5nc(C)n(C(C)C)c5c4)n3)nc2)CC1 + CC(Nc1ccc2c(c1)OCCn1cc(N3C(=O)OCC3C(F)F)nc1-2)C(N)=O
pIC50 [1]: < 6.00
pIC50 [2]: < 6.00
pIC50 [3]: < 6.00
pIC50 [4]: < 6.00
pIC50 [5]: < 6.00
pIC50 [6]: < 6.00
viability, T/C [7]: 105%
viability, T/C [8]: 98.8%
viability, T/C [9]: 105%
viability, T/C [10]: 113%
viability, T/C (second compound 0.00316 µM, first compound 0.316 µM): 118%
viability, T/C (second compound 0.00316 µM, first compound 1 µM): 119%
viability, T/C [11]: 95.5%
viability, T/C [12]: 102%
viability, T/C [13]: 110%
viability, T/C [14]: 110%
viability, T/C (second compound 0.01 µM, first compound 0.316 µM): 113%
viability, T/C (second compound 0.01 µM, first compound 1 µM): 107%
viability, T/C [15]: 105%
viability, T/C [16]: 99.2%
viability, T/C [17]: 112%
viability, T/C [18]: 95.8%
viability, T/C (second compound 0.0316 µM, first compound 0.316 µM): 121%
viability, T/C (second compound 0.0316 µM, first compound 1 µM): 124%
viability, T/C [19]: 96.4%
viability, T/C [20]: 104%
viability, T/C [21]: 102%
viability, T/C [22]: 105%
viability, T/C (second compound 0.1 µM, first compound 0.316 µM): 109%
viability, T/C (second compound 0.1 µM, first compound 1 µM): 103%
viability, T/C [23]: 85.5%
viability, T/C [24]: 82.6%
viability, T/C [25]: 99.9%
viability, T/C [26]: 98.6%
viability, T/C (second compound 0.316 µM, first compound 0.316 µM): 90.7%
viability, T/C (second compound 0.316 µM, first compound 1 µM): 96.9%
viability, T/C [27]: 70.8%
viability, T/C [28]: 72.4%
viability, T/C [29]: 64.3%
viability, T/C [30]: 73.1%
viability, T/C (second compound 1 µM, first compound 0.316 µM): 87.8%
viability, T/C (second compound 1 µM, first compound 1 µM): 77.8%

CC(C)n1nc(-c2ccc3oc(N)nc3c2)c2c(N)ncnc21 + CC(Nc1ccc2c(c1)OCCn1cc(N3C(=O)OCC3C(F)F)nc1-2)C(N)=O
pIC50 [1]: 7.21
pIC50 [2]: 7.23
pIC50 [3]: 7.23
pIC50 [4]: 7.27
pIC50 [5]: 7.50
pIC50 [6]: 7.90
viability, T/C (second compound 0.00316 µM, first compound 0.000316 µM): 119%
viability, T/C (second compound 0.00316 µM, first compound 0.001 µM): 100%
viability, T/C [7]: 94.7%
viability, T/C [8]: 90%
viability, T/C [9]: 68.8%
viability, T/C [10]: 36.2%
viability, T/C (second compound 0.01 µM, first compound 0.000316 µM): 102%
viability, T/C (second compound 0.01 µM, first compound 0.001 µM): 92.2%
viability, T/C [11]: 96.3%
viability, T/C [12]: 95.5%
viability, T/C [13]: 74.3%
viability, T/C [14]: 30%
viability, T/C (second compound 0.0316 µM, first compound 0.000316 µM): 119%
viability, T/C (second compound 0.0316 µM, first compound 0.001 µM): 103%
viability, T/C [15]: 98.3%
viability, T/C [16]: 80%
viability, T/C [17]: 75.9%
viability, T/C [18]: 32.6%
viability, T/C (second compound 0.1 µM, first compound 0.000316 µM): 89.1%
viability, T/C (second compound 0.1 µM, first compound 0.001 µM): 94.9%
viability, T/C [19]: 80.3%
viability, T/C [20]: 82.9%
viability, T/C [21]: 72.5%
viability, T/C [22]: 25.3%
viability, T/C (second compound 0.316 µM, first compound 0.000316 µM): 81.6%
viability, T/C (second compound 0.316 µM, first compound 0.001 µM): 73.3%
viability, T/C [23]: 78.6%
viability, T/C [24]: 74.6%
viability, T/C [25]: 50.2%
viability, T/C [26]: 24.8%
viability, T/C (second compound 1 µM, first compound 0.000316 µM): 65.6%
viability, T/C (second compound 1 µM, first compound 0.001 µM): 63.1%
viability, T/C [27]: 67.2%
viability, T/C [28]: 48%
viability, T/C [29]: 39.8%
viability, T/C [30]: 17.9%

CNC(=O)c1ccc(N2C(=S)N(c3ccc(C#N)c(C(F)(F)F)c3)C(=O)C2(C)C)cc1F
viability, T/C (compound 0.0316 µM): 107% (2×) and 95.9% and 101%
viability, T/C (compound 0.1 µM): 98.2% [middle of 4 runs]
viability, T/C (compound 0.316 µM): 107% [middle of 4 runs]
viability, T/C (compound 1 µM): 105% [middle of 4 runs]
viability, T/C (compound 3.16 µM): 92.6% and 104% (2×) and 108%
viability, T/C (compound 10 µM): 91% [middle of 4 runs]
pIC50 (curve of compound): < 5.00
